Data from patent US20110212977A1, “P70 S6 KINASE INHIBITOR AND MTOR INHIBITOR COMBINATION THERAPY” (ELI LILLY AND COMPANY, priority 2008, published 2011).

System: U87MG human glioblastoma cells
Assay: Determination of In Vivo Efficacy: U87MG human glioblastoma xenograft tumor volume;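 further: subcutaneous flank xenografts in female athymic nude mice, tumor volume measured twice weekly, log volumes compared with the combined-vehicle control group by repeated measures ANOVA at each time point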
Settings: for Tumor volume Mean / Signif. (difference in tumor volume relative to the vehicle group): 3 mg/kg of each agent orally once daily; for Tumor volume Mean: U87MG xenograft in nude mice
Experimental: The vehicle group is given the 2 vehicles (NaCMC Tween 80 and 35% PEG300/10% HPBCD/10% PS80 in H2O) in combination (0.1 mL of each). Treatment is continued for 23 days. Tumor volumes are measured using standard technique twice weekly and reported. Tumor size and body weight are recorded and analyzed bi-weekly. Tumor volume is estimated by using the formula: v=l×w^2×0.536 where l=larger of measured diameter and w=smaller of perpendicular diameter. The analysis uses SAS software version 8.2 (SAS Institutes Inc, Cary, N.C.) to analyze the log tumor volume data using a repeated measures ANOVA model with a spatial power covariance structure. For each time point taken, treatment groups are compared to the vehicle control group. Tumor volumes are given as means±standard errors for each treatment group determined from a repeated measures ANOVA on each group.
The data in the column headed Signif. indicates whether the difference relative to the vehicle group is statistically significant: NS=Not Significant (p>0.05); *=0.01<p≦0.05; **=0.001<<p≦0.01; ***=p≦0.001.

Row | Compound | Tumor volume Mean (Day 7) | Tumor volume Mean (Day 10) | Tumor volume Mean (Day 13) | Tumor volume Mean (Day 16) | Tumor volume Mean (Day 20) | Tumor volume Mean (Day 23) | Tumor volume Mean (Day 27) | Tumor volume Mean (Day 30) | Tumor volume Mean (Day 34) | Statistical difference from the vehicle group (in words) (whole study (throughout), 3 mg/kg orally once daily) | Signif. (difference in tumor volume relative to the vehicle group) (Day 7) | Signif. (difference in tumor volume relative to the vehicle group) (Day 10) | Signif. (difference in tumor volume relative to the vehicle group) (Day 13) | Signif. (difference in tumor volume relative to the vehicle group) (Day 16) | Signif. (difference in tumor volume relative to the vehicle group) (Day 20) | Signif. (difference in tumor volume relative to the vehicle group) (Day 23) | Signif. (difference in tumor volume relative to the vehicle group) (Day 27) | Signif. (difference in tumor volume relative to the vehicle group) (Day 30) | Signif. (difference in tumor volume relative to the vehicle group) (Day 34)
1 | CO[C@H]1CC2CC[C@@H](C)[C@@](O)(O2)C(=O)C(=O)N2CCCC[C@H]2C(=O)O[C@H]([C@H](C)C[C@@H]2CC[C@@H](O)[C@H](OC)C2)CC(=O)[C@H](C)/C=C(\C)[C@@H](O)[C@@H](OC)C(=O)[C@H](C)C[C@H](C)/C=C/C=C/C=C/1C [Rapamycin, rapamycin, reference compound] | 43.1 | 65.6 | 121.9 | 220.4 | 311.5 | 606.0 | 879.7 | 1160.8 | 1429.5 | not significantly different | – | – | – | – | – | – | – | – | –
2 | Cn1cc(-c2ccc(F)c(C(F)(F)F)c2)nc1C1CCN(c2ncnc3[nH]ncc23)CC1 [p70 S6 Kinase Inhibitor] | 43.8 | 79.6 | 118.7 | 159.0 | 233.6 | 539.1 | 928.6 | 1158.5 | 1256.6 | – | NS (NS=Not Significant (p>0.05)) | NS (NS=Not Significant (p>0.05)) | NS (NS=Not Significant (p>0.05)) | * (*=0.01<p≦0.05) | * (*=0.01<p≦0.05) | NS (NS=Not Significant (p>0.05)) | NS (NS=Not Significant (p>0.05)) | NS (NS=Not Significant (p>0.05)) | NS (NS=Not Significant (p>0.05))
